Measured values from patent US20050113455A1, “Method and composition for amelioration of pain” (priority 2003, published 2005).

Key:
[1] = test system: visceral nociception (stretching) in mice; assay: Murine visceral pain model: stretching in mouse i.p. acetic acid test; type: in vivo; details: for Potency at inhibiting visceral nociception relative to morphine: mouse i.p. acetic acid test, dose-response relationships; for MED (minimum dose at which the number of stretches during the observation period is significantly different from saline controls): mouse, s.c. administration, 0.6% acetic acid i.p., 30 min observation
Procedure: Dose-response relationships for the polyamines listed in Table 1 were performed in the mouse i.p. acetic acid test.
Assessment of Candidate Agents in a Murine Visceral Pain Model: There is an extensive literature on visceral pain in the acetic acid mouse model (Bidlack J M, Cohen D J, McLaughlin J P, Lou R, Ye Y, Wentland M P. 8-carboxamidocyclazocine: A long-acting, novel benzomorphan. J Pharmacol Exp Ther. 2002;302:374-380; Reichert J A, Daughters R S, Rivard R, Simone D A. Peripheral and preemptive opioid antinociception in a mouse visceral pain model. Pain. 2001;89:221-227; Farzin D, Asghari L, Nowrouzi M. Rodent antinociception following acute treatment with different histamine receptor agonists and antagonists. Pharmacol Biochem Behav. 2002;72:751-760; Hinschberger A, Butt 5, Lelong V, Boulouard M, Dumuis A, Dauphin F, Bureau R, Pfeiffer B, Renard P, Rault S. New benzo[h][1,6]naphthyridine and azepino[3,2-c]quinoline derivatives as selective antagonists of 5-ht4 receptors: Binding profile and pharmacological characterization. J Med Chem. 2003;46:138-147).
The mice receive either an s.c. or i.p. injection (0.3 mL) of either saline or a test drug at varying doses. Fifteen to thirty minutes following the treatment, the animals receive an i.p. injection of 0.6% acetic acid in saline (sterile, 0.3 mL). The mice are then placed into holding cages and observed for 30 mm. The number of stretches the animals make following the acetic acid injections are counted. A stretch is identified by the animal extending its hind legs well behind its body. This posture is rarely seen in a non-injected animal.

[2] = cited from earlier work

Row | Compound | MED (minimum dose at which the number of stretches during the observation period is significantly different from saline controls) [1] [mg/kg s.c.] | Effectiveness in the murine visceral pain model (in words) [1] | other results
1 | CCNCCCN[C@H]1CC[C@H](NCCCNCC)CC1 [CHX(3,4,3)-trans, N,N′-bis[3-(ethylamino)propyl]-trans-1,4-cyclohexanediamine] | 0.0037 |  | Potency at inhibiting visceral nociception relative to morphine [1]: more than three orders of magnitude more potent than morphine
2 | CCCCNCCCNCCCCNCCCNCCCC [DBSPM, N^1N^11-dibutylspermine] | 0.12 |  | 
3 | CCNCCCCNCCCCNCCCCNCC [DEHSPM, N^1,N^14-diethylhomospermine] |  | highly effective | Potency at inhibiting visceral nociception relative to morphine [1]: equipotent to morphine; Cognitive effects in human clinical trials [2]: lack of cognitive effects
4 | CCNCCCNCCCNCCCNCC [DENSPM, N^1,N^11-diethylnorspermine] | 0.37 | highly effective | 
5 | CCNCCCNCCCCNCCCNCC [DESPM, N^1,N^12-diethylspermine] |  | less so | 
6 | CC(C)NCCCNCCCCNCCCNC(C)C [DIPSPM, N^1N^12-diisopropylspermime] |  | less so | 
7 | C(CCNC1CCNCC1)CNC1CCNCC1 [PIP(3,4,3), N,N′-bis(4-piperidinyl)-1,4-butanediamine] |  | less so | 
8 | CN1CC[C@]23c4c5ccc(O)c4O[C@H]2[C@@H](O)C=C[C@H]3[C@H]1C5 [morphine, reference compound] |  |  | Overt cognitive / behavioural effects in mice ([1]; observed during mouse i.p. acetic acid test): produced stereotypical opiate induced hyperactivity and Straub tail
9 | dihydroxydiethylnorspermine [(HO)2DENSPM] | 0.0037 |  | 
